The text below walks through data of paper PMC11713942 (Therapeutic Advances in Infectious Disease, 2025).

In general, clearance refers to a measure of how efficiently the substance is removed, as volume per time. Read a high clearance as efficient removal. By half-life is commonly meant how long it takes for the measured level to halve. Read a high half-life as slow loss. One may read the MIC as the least concentration at which growth counts as inhibited. A low value points to inhibition by little substance.

Data set [1] is described as follows: clinical. The note with it: human, in vivo; for half-life: Daptomycin t1/2 (elimination half-life), IV, 0.693/kel, median (IQR). On the procedure:
Tubes were centrifuged at 10,400 rpm for at least 10 min at room temperature; separated plasma was then dispensed into polypropylene-labelled tubes and stored at −80°C until the bioanalysis was carried out. […] QcH (80 µg/mL), QcM (40 µg/mL) and QcL (4 µg/mL), by serial dilution in plasma. […] Just before the analysis, patient plasma samples were thawed, and calibrators and quality controls were prepared fresh in the same matrix. Each sample was processed by protein precipitation: 50 µL of plasma was prepared in pre-labelled Eppendorf tubes®. […] In total, 200 µL of the supernatant was transferred to HPLC vials, and 5 µL was injected into the chromatographic column. The HPLC system used was a Thermo Scientific quaternary pump® (Accela pump; Thermo Fisher Scientific, San Francisco, CA, USA) interfaced with an autosampler (Accela autosampler). […] From 3.10 to 4.50 min, the column was again equilibrated to the initial conditions. […] Xcalibur 2.07 and Lcquan2.5.6 software from Thermo Scientific (San Jose, CA, USA) were utilized for the LC-MS/MS system control, data acquisition and data analysis. Calibration curves were generated using weighted (1/x^2) linear regression curves.

The subject of data set [2] is Staphylococcus spp. infective endocarditis. Kind of data set: Microbiological and clinical response of Staphylococcus spp. infective endocarditis. Format: in vivo, human. The conditions noted are these: all patients, both dose groups.
Method: The monocentric, prospective, cohort study was approved by the local ethics committee. […] All participants signed an informed consent form before the initiation of treatment and data/biological samples collection. […] Due to the COVID-19 pandemic, we could not completely fulfil the study design, and patients were treated with either 8–10 mg/kg (group A) or 11–12 mg/kg (group B), as per routine clinical treatment. In six patients, PK data relative to both doses are available, as per the initial protocol. […] Microbiological failure was defined by persistent or breakthrough infection during IE treatment.
How the values of data set [3] were obtained:
The monocentric, prospective, cohort study was approved by the local ethics committee. […] All participants signed an informed consent form before the initiation of treatment and data/biological samples collection. […] Due to the COVID-19 pandemic, we could not completely fulfil the study design, and patients were treated with either 8–10 mg/kg (group A) or 11–12 mg/kg (group B), as per routine clinical treatment. […] Microbiological failure was defined by persistent or breakthrough infection during IE treatment.
The occurrence of CK elevation above the normal value (>170 mU/mL) and eosinophilic pneumonia was evaluated.

The subject of data set [4] is Staphylococcus spp.
The conditions of data set [5]: multilevel linear mixed model.
From the text: In any complex structure, we can identify atomic units (in this case curves) and higher level unit (in this case patients). Treating patients as a random effect will correct standard errors and furnish an estimate of between-group variance. Introducing some covariate in a fixed part of the models helps to explain and so reduce unexplained between-group variance. Results are expressed as beta coefficient with their 95% confidence interval (95% CI) and presented with term-specific p values; the beta coefficient represents the mean variation of outcomes for unit change of quantitative predictors or between levels of categorical or ordinal predictors.
AUC0–24 determined on the fifth day of treatment, when the steady-state conditions were achieved, were calculated and compared between the two different groups of patients.
For data set [6] the following is noted: cited from earlier work.

On to `CCCCCCCCCC(=O)N[C@@H](Cc1c[nH]c2ccccc12)C(=O)N[C@H](CC(N)=O)C(=O)N[C@@H](CC(=O)O)C(=O)N[C@@H]1C(=O)NCC(=O)N[C@@H](CCCN)C(=O)N[C@@H](CC(=O)O)C(=O)N[C@H](C)C(=O)N[C@@H](CC(=O)O)C(=O)NCC(=O)N[C@H](CO)C(=O)N[C@@H]([C@H](C)CC(=O)O)C(=O)N[C@@H](CC(=O)c2ccccc2N)C(=O)O[C@@H]1C` [Daptomycin, daptomycin], for which the “Dose linearity of pharmacokinetics” value in data set [1] is “linear daptomycin pharmacokinetics”. For the same compound, in data set [1] (iv, Daptomycin CL), the clearance was 8.17 mL/min. In addition, the half-life in data set [1] (iv, group A 8–10 mg/kg daily, 15 patients) is 16.9 h. The compound also gave a half-life in data set [1] (iv, group B 11–12 mg/kg daily, 14 patients) of 15.1 h. In data set [2], the “Breakthrough infections while on treatment” value is “without evidence of breakthrough infections”, the Microbiologic response entry was “All patients displayed a microbiologic response” and the “Survival at 30 days” value is “All patients were alive”. The “Eosinophilic pneumonia during treatment” value in data set [3] (8–12 mg/kg daily) is given as “none of the patients”. Also, the “CK increase during treatment” value in data set [3] (in vivo) was “none of the patients”. This compound also displayed an MIC in data set [4] of under 0.5 µg/mL. The “Effect of gender on AUC0–24” value in data set [5] is “gender did not affect the results”. Also, the “Beta coefficient, association of AUC0–24 with dose group” value in data set [5] (95% CI 64–483, p = 0.010) was 274. For the same compound, in data set [6], the “Increase of systemic exposure in elderly individuals (>75 years) compared with younger (18–30 years)” value is 58%.
